Assay results reported in patent US9790201B2, “Piperidine and azepine derivatives as prokineticin receptor modulators” (TAKEDA PHARMACEUTICAL COMPANY LIMITED, priority 2013, dated 2017).

Target: human PKR1 receptors (Homo sapiens (Human), UniProt Q8TCW9)
Assay: PKR1 antagonist assay: block of PK1-mediated intracellular calcium release (FLIPR Tetra)
Type: cell-based
Details: RBL2H3 cells expressing human PKR1; stimulation with PK1 at EC80; calcium fluorescence
Method: Prokineticin receptor 1 (PKR1) antagonists may be functionally assessed by measurement of change in intracellular calcium levels induced by Gq mediated increase in inositol triphosphate (IP3) levels. The ability of a compound to block the intracellular release of calcium mediated by PK1 in RBL2H3 cells expressing human PKR1 receptors is determined as a measure of the compound's antagonist activity in vitro.
Approximately 10,000 cells per assay well are seeded in normal culture medium in a 384 well plate (Corning). Twenty-four hours after seeding, the cells are loaded with a calcium sensitive fluorescent dye by replacing the culture medium with assay buffer (1× Hanks buffered saline, 25 mM HEPES, 0.1% w/v fatty acid free BSA (bovine serum albumin), pH 7.4) containing 1 mM probenecid and 1× Calcium 5 Reagent (Molecular Devices). Cells are incubated at 37° C. for 1 hour to allow for dye uptake.
To test for antagonist activity, test compounds at a final concentration range between 0.32 nM-10 μM (diluted in assay buffer) are added to the assay wells and allowed to incubate for 10 minutes prior to stimulation with PK1. After incubation with test compounds the assay plate is placed in a FLIPR Tetra (Molecular Devices) and PK1 (diluted in assay buffer) is added at the determined EC80 concentration (final). Ligand-dependent changes in intracellular calcium levels are determined by measuring changes in fluorescence of the dye at […] following excitation at 485 nm.

Chain of human PKR1 receptors (Q8TCW9 whole entry): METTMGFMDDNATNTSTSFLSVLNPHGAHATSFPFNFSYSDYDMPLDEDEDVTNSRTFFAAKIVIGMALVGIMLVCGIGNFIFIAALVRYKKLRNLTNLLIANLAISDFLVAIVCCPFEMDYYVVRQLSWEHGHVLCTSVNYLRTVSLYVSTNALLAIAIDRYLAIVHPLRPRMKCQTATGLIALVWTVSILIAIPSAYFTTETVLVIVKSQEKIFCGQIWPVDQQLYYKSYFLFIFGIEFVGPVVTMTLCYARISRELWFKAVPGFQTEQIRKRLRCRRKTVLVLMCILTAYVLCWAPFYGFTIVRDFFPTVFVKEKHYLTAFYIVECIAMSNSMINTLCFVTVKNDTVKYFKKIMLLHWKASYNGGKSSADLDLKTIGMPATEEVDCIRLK

Structure (SMILES)	IC50 [nM]
CN(C)c1cc(C(=O)N2CCC[C@H](c3ccc(Cl)cc3)C2)ccn1 [Example 18, 4-{[(3R)-3-(4-Chlorophenyl)piperidin-1-yl]carbonyl}-N,N-dimethylpyridin-2-amine]	180
CCc1cc(C(=O)N2CCCC(c3ccc(Cl)cc3C(F)(F)F)C2)ccn1 (stereo not shown) [Example 6, 4-({3-[4-Chloro-2-(trifluoromethyl)phenyl]piperidin-1-yl}carbonyl)-2-ethylpyridine]	280
Cc1cccc(C2CCCN(C(=O)c3ccnc(N(C)C)c3)C2)c1 (stereo not shown) [Example 13, N,N-Dimethyl-4-{[3-(3-methylphenyl)piperidin-1-yl]carbonyl}pyridin-2-amine]	1920
CN(C)c1cc(C(=O)N2CCCC(c3ccc(Cl)cc3)C2)cnn1 (stereo not shown) [Example 69, 5-{[3-(4-Chlorophenyl)piperidin-1-yl]carbonyl}-N,N-dimethylpyridazin-3-amine]	810
Cc1ccc(C2CCCN(C(=O)c3ccnc(N4CCC4)c3)C2)cc1 (stereo not shown) [Example 21, 2-(Azetidin-1-yl)-4-{[3-(4-methylphenyl)piperidin-1-yl]carbonyl}pyridine]	1200
Cc1cc(Cl)ccc1C1CCCN(C(=O)c2ccnc(N3CCC3)c2)C1 (stereo not shown) [Example 33, 2-(Azetidin-1-yl)-4-{[3-(4-chloro-2-methylphenyl)piperidin-1-yl]carbonyl}pyridine]	90
COc1cc(C(=O)N2CCCC(c3ccc(Cl)cc3C(F)(F)F)C2)ccn1 (stereo not shown) [Example 9, 4-({3-[4-Chloro-2-(trifluoromethyl)phenyl]piperidin-1-yl}carbonyl)-2-methoxypyridine]	1370
CCc1cc(C(=O)N2CCCC(c3ccccc3OC)C2)ccn1 (stereo not shown) [Example 59, 2-Ethyl-4-{[3-(2-methoxyphenyl)piperidin-1-yl]carbonyl}pyridine]	1600
Cc1cc(Cl)ccc1C1CCCN(C(=O)c2cnn(C)c2N)C1 (stereo not shown) [Example 95, 4-{[3-(4-Chloro-2-methylphenyl)piperidin-1-yl]carbonyl}-1-methyl-1H-pyrazol-5-amine]	150
CCOc1cc(Cl)ccc1C1CCCN(C(=O)c2cnnc(N(C)C)c2)C1 (stereo not shown) [Example 84, 5-{[3-(4-Chloro-2-ethoxyphenyl)piperidin-1-yl]carbonyl}-N,N-dimethylpyridazin-3-amine]	90
CC(C)c1cc(C(=O)N2CCCC(c3ccc(Cl)cc3)C2)ccn1 (stereo not shown) [Example 30, 4-{[3-(4-Chlorophenyl)piperidin-1-yl]carbonyl}-2-(propan-2-yl)pyridine]	830
CN(C)c1cc(C(=O)N2CCCCC(c3ccc(Cl)cc3)C2)ccn1 (stereo not shown) [Example 108, 4-{[3-(4-Chlorophenyl)azepan-1-yl]carbonyl}-N,N-dimethylpyridin-2-amine]	3230
CCOc1cc(Cl)ccc1C1CCCN(C(=O)c2ccnc(N(C)C)c2)C1 (stereo not shown) [Example 61, 4-{[3-(4-Chloro-2-ethoxyphenyl)piperidin-1-yl]carbonyl}-N,N-dimethylpyridin-2-amine]	100
CN(C)c1cc(C(=O)N2CCCC(c3ccccc3OC(F)F)C2)ccn1 (stereo not shown) [Example 66, 4-({3-[2-(Difluoromethoxy)phenyl]piperidin-1-yl}carbonyl)-N,N-dimethylpyridin-2-amine]	700
CNc1cc(C(=O)N2CCC[C@H](c3ccc(Cl)cc3C)C2)cnn1 [Example 72, 5-{[(3R)-3-(4-Chloro-2-methylphenyl)piperidin-1-yl]carbonyl}-N-methylpyridazin-3-amine]	30
O=C(c1cnnc(N2CCC2)c1)N1CCCC(c2ccc(Cl)cc2C(F)(F)F)C1 (stereo not shown) [Example 77, 3-(Azetidin-1-yl)-5-({3-[4-chloro-2-(trifluoromethyl)phenyl]piperidin-1-yl}carbonyl)pyridazine]	730
COc1cc(C(=O)N2CCCC(c3ccc(C)cc3)C2)ccn1 (stereo not shown) [Example 34, 2-Methoxy-4-{[3-(4-methylphenyl)piperidin-1-yl]carbonyl}pyridine]	5270
CN(C)c1cc(C(=O)N2CCCCC(c3ccc(Cl)cc3)C2)cnn1 (stereo not shown) [Example 115, 5-{[3-(4-Chlorophenyl)azepan-1-yl]carbonyl}-N,N-dimethylpyridazin-3-amine]	1440
CNc1cc(C(=O)N2CCCC(c3ccc(Cl)cc3)C2)ccn1 (stereo not shown) [Example 27, 4-{[3-(4-Chlorophenyl)piperidin-1-yl]carbonyl}-N-methylpyridin-2-amine]	130

More lines, now with the values ahead:

IC50 [nM]	Structure (SMILES)
1040	O=C(c1ccnc(N2CCC2)c1)N1CCCC(c2ccc(Cl)cc2)C1 (stereo not shown) [Example 22, 2-(Azetidin-1-yl)-4-{[3-(4-chlorophenyl)piperidin-1-yl]carbonyl}pyridine]
100	CN(C)c1cc(C(=O)N2CCCC(c3ccc(Cl)cc3C(F)(F)F)C2)ccn1 (stereo not shown) [Example 7, 4-({3-[4-Chloro-2-(trifluoromethyl)phenyl]piperidin-1-yl}carbonyl)-N,N-dimethylpyridin-2-amine]
330	CC(C)n1cc(C(=O)N2CCCC(c3ccc(Cl)cc3C(F)(F)F)C2)cn1 (stereo not shown) [Example 99, 3-[4-Chloro-2-(trifluoromethyl)phenyl]-1-{[1-(propan-2-yl)-1H-pyrazol-4-yl]carbonyl}piperidine]
1230	CN(C)c1cc(C(=O)N2C=C(c3ccc(Cl)cc3Cl)CCC2)ccn1 [Example 106, 4-{[5-(2,4-Dichlorophenyl)-1,2,3,4-tetrahydropyridin-1-yl]carbonyl}-N,N-dimethylpyridin-2-amine]
960	COc1ccc(C2CCCCN(C(=O)c3ccnc(N(C)C)c3)C2)cc1 (stereo not shown) [Example 109, 4-{[3-(4-Methoxyphenyl)azepan-1-yl]carbonyl}-N,N-dimethylpyridin-2-amine]
960	Cc1ccccc1C1CCCN(C(=O)c2ccnc(N3CCC3)c2)C1 (stereo not shown) [Example 23, 2-(Azetidin-1-yl)-4-{[3-(2-methylphenyl)piperidin-1-yl]carbonyl}pyridine]
530	CN(C)c1cc(C(=O)N2CCCC(c3ccc(Cl)cc3F)C2)ccn1 (stereo not shown) [Example 25, 4-{[3-(4-Chloro-2-fluorophenyl)piperidin-1-yl]carbonyl}-N,N-dimethylpyridin-2-amine]
200	Cc1cc(Cl)ccc1C1CCCN(C(=O)c2cn(C)nc2C)C1 (stereo not shown) [Example 87, 3-(4-Chloro-2-methylphenyl)-1-[(1,3-dimethyl-1H-pyrazol-4-yl)carbonyl]piperidine]
3290	O=C(c1ccnc(Cl)c1)N1CCCC(c2ccc(Cl)cc2)C1 (stereo not shown) [Example 29, 2-Chloro-4-{[3-(4-chlorophenyl)piperidin-1-yl]carbonyl}pyridine]
470	CN(C)c1cc(C(=O)N2CCCC(c3ccc(F)cc3Cl)C2)ccn1 (stereo not shown) [Example 26, 4-{[3-(2-Chloro-4-fluorophenyl)piperidin-1-yl]carbonyl}-N,N-dimethylpyridin-2-amine]
6500	Cc1ccc(C2CCCN(C(=O)c3ccnc(N4CC(F)(F)C4)c3)C2)cc1 (stereo not shown) [Example 38, 2-(3,3-Difluoroazetidin-1-yl)-4-{[3-(4-methylphenyl)piperidin-1-yl]carbonyl}pyridine]
330	Cn1cc(C(=O)N2CCCC(c3ccc(Cl)cc3C(F)(F)F)C2)c(N)n1 (single isomer, unassigned) [Example 119, 4-({3-[4-Chloro-2-(trifluoromethyl)phenyl]piperidin-1-yl}carbonyl)-1-methyl-1H-pyrazol-3-amine]
